# In patent US9095577B2, “Stabilized amine-containing actives in oral film compositions” (MonoSol Rx, LLC, priority 2009, dated 2015):
# Experiment: Reaction of sweetener with the amine-containing active (gel formation)
# Type: physicochemical
# Protocol: It has been discovered that gellation and/or agglomeration of components particularly occurred when sucralose was added to the active ingredient (such as ondansetron). It has been determined that the particular choice of excipients combined together may be important to prevent the formation of undesirable gellation and/or agglomeration. […] It is hypothesized that the amines on the active component may form quaternary salts with the primary alkyl chlorides on the sucralose. Quaternary polymers make good hydrogels, and thus undesirably form a gel-like structure, which is problematic in the processing of film matrices to form films having a uniformity of content.
smiles,measurement,value
OC[C@H]1O[C@@](CO)(O[C@H]2O[C@H](CO)[C@@H](O)[C@H](O)[C@H]2O)[C@@H](O)[C@@H]1O [sucrose],reaction with the amine-containing active (gel formation),did not react
